# Measured values published in the OligoGym collection.
# These antisense oligonucleotides have a phosphorothioate backbone; sugars and methylation of C are not fully specified.
# Columns and labels:
# Settings in all cases: ASO
# [1] = target: WWP1
# [2] = target: CHUK
# [3] = target: PRKACA
# [4] = target: PTPN11
# Further: test concentration or dose not given here.
sequence,measurement,setting,value
AATTTCCCAGCCTTCTGGCA,remaining target (mRNA or protein) (fraction of control),[1],≥ 1
TCTCCTCCAGAACAGTAT,remaining target (mRNA or protein) (fraction of control),[2],≥ 1
ATCTGCAGACAATAGTTGTT,remaining target (mRNA or protein) (fraction of control),[1],≥ 1
TATGAAAGATGGTCTGGATT,remaining target (mRNA or protein) (fraction of control),[1],0.99
CCCATCGCGGCGGCGGCGGC,remaining target (mRNA or protein) (fraction of control),[3],0.53
CTGTTGGAAGGAATCTTCAA,remaining target (mRNA or protein) (fraction of control),[1],≥ 1
CGGCGGCGGCGTTGCCCATC,remaining target (mRNA or protein) (fraction of control),[3],0.21
AAGTCTCCCCATCTTGAG,remaining target (mRNA or protein) (fraction of control),[2],≥ 1
CATCGCGGCGGCGGCGGCCG,remaining target (mRNA or protein) (fraction of control),[3],0.51
CCCTGCATGAACATGACA,remaining target (mRNA or protein) (fraction of control),[2],0.47
AAGCAACCCACTGAACATGT,remaining target (mRNA or protein) (fraction of control),[3],0.62
AACTTCAGGTCATGTGAAGT,remaining target (mRNA or protein) (fraction of control),[1],≥ 1
TTCAAAATTTCGGACAGATT,remaining target (mRNA or protein) (fraction of control),[1],≥ 1
CTTCTGTTTGTCGAGGATCT,remaining target (mRNA or protein) (fraction of control),[3],0.49
TTAAACTACAAAGGCTAT,remaining target (mRNA or protein) (fraction of control),[2],≥ 1
GGCATGCCCCTAAAACTCAG,remaining target (mRNA or protein) (fraction of control),[3],0.55
GCGGCGGCGTTGCCCATCGC,remaining target (mRNA or protein) (fraction of control),[3],0.33
GCATAGCTCCCTGCAATTGG,remaining target (mRNA or protein) (fraction of control),[1],≥ 1
CTTCTGCTTACAGCCCAA,remaining target (mRNA or protein) (fraction of control),[2],0.56
TTCCCGATGCTGGTACAG,remaining target (mRNA or protein) (fraction of control),[2],0.63
TGTCTTGATTTGGCTGCTTC,remaining target (mRNA or protein) (fraction of control),[1],0.91
TCTGCGAAGAAGGGCGGGTA,remaining target (mRNA or protein) (fraction of control),[3],≥ 1
TCGCGGCGGCGGCGGCCGGG,remaining target (mRNA or protein) (fraction of control),[3],0.81
GCGGCGGGTGCTGGCTGCGG,remaining target (mRNA or protein) (fraction of control),[3],0.85
AGGATGTGTACTATCTTC,remaining target (mRNA or protein) (fraction of control),[2],0.79
TGTTCCAGAGATTCCATC,remaining target (mRNA or protein) (fraction of control),[2],≥ 1
CACCATAATCAAGTCCTTCT,remaining target (mRNA or protein) (fraction of control),[1],0.52
CACACAGGTTGAATCGCCCC,remaining target (mRNA or protein) (fraction of control),[3],0.39
TGTTGTTATCTCTTATCCAG,remaining target (mRNA or protein) (fraction of control),[1],0.92
GCGGCCCTTCACGCGCTTGG,remaining target (mRNA or protein) (fraction of control),[3],≥ 1
CCTTGAACCCCGGGCCGTGG,remaining target (mRNA or protein) (fraction of control),[3],0.44
AACATTGAAGCCGAATAGAG,remaining target (mRNA or protein) (fraction of control),[1],≥ 1
GCTTCTCTTTAAAATGGATT,remaining target (mRNA or protein) (fraction of control),[3],0.84
TAGTTTTCAAATATGTTTAC,remaining target (mRNA or protein) (fraction of control),[3],≥ 1
ACTAGAGTGCTTGTAGGTAC,remaining target (mRNA or protein) (fraction of control),[1],≥ 1
CTTTGTTCCCACCCTGATGG,remaining target (mRNA or protein) (fraction of control),[1],0.98
CAAGAGAGCGGGCAGAAC,remaining target (mRNA or protein) (fraction of control),[2],≥ 1
TTTCTGAGGAAGTCAGTATT,remaining target (mRNA or protein) (fraction of control),[1],≥ 1
TAAGCGCCTCCTCAAGTCAT,remaining target (mRNA or protein) (fraction of control),[1],0.86
ATCTTGGCTGCTTCAAAG,remaining target (mRNA or protein) (fraction of control),[2],0.6
ATACATTGGGTTCAAAACTT,remaining target (mRNA or protein) (fraction of control),[1],0.92
TCAGACACTACTGGAGTACC,remaining target (mRNA or protein) (fraction of control),[1],0.76
AGCACAAATGAGAAAGTGGG,remaining target (mRNA or protein) (fraction of control),[3],0.93
GGTAACAGAAAAGAAATT,remaining target (mRNA or protein) (fraction of control),[2],≥ 1
CTGAGATCAAAGTGTTCT,remaining target (mRNA or protein) (fraction of control),[2],≥ 1
TTACTGAGGGCCACTTCC,remaining target (mRNA or protein) (fraction of control),[2],0.48
GACATAATCTGATCCTCC,remaining target (mRNA or protein) (fraction of control),[2],≥ 1
TCCTTCAAGTCAGAGCTGAA,remaining target (mRNA or protein) (fraction of control),[3],0.56
CTACTAAACCGAACTTCT,remaining target (mRNA or protein) (fraction of control),[2],≥ 1
GGAGCAGCTGGTGTTTCTGT,remaining target (mRNA or protein) (fraction of control),[3],0.61
ATTCTTTCACGCTCTCCTGC,remaining target (mRNA or protein) (fraction of control),[3],0.97
TAATCTGGATTTCATGGC,remaining target (mRNA or protein) (fraction of control),[2],≥ 1
GCTTGCAGGATGCGCTTTTC,remaining target (mRNA or protein) (fraction of control),[3],0.34
ACCCTCGCAGGATTGGCAGA,remaining target (mRNA or protein) (fraction of control),[3],0.47
CGCTGCTGGGAGGAAAGACT,remaining target (mRNA or protein) (fraction of control),[3],0.48
CGGCGTTGCCCATCGCGGCG,remaining target (mRNA or protein) (fraction of control),[3],0.47
CTGAGGGTCCCAATTCAA,remaining target (mRNA or protein) (fraction of control),[2],0.88
ACATTGCTGCCCTTTGTC,remaining target (mRNA or protein) (fraction of control),[2],0.54
TGCCCAGCCGCTCCCGCA,remaining target (mRNA or protein) (fraction of control),[2],0.85
AGTATCAATAGATTCCAAAT,remaining target (mRNA or protein) (fraction of control),[1],≥ 1
ATCTTTGTTCTCCTCAGTCA,remaining target (mRNA or protein) (fraction of control),[1],0.92
TGCCCATCGCGGCGGCGGCG,remaining target (mRNA or protein) (fraction of control),[3],0.71
CCAGCATCACCCGCCCGAAG,remaining target (mRNA or protein) (fraction of control),[3],0.34
TACAAGAAAACTACCATGTT,remaining target (mRNA or protein) (fraction of control),[4],≥ 1
GTTGCCCATCGCGGCGGCGG,remaining target (mRNA or protein) (fraction of control),[3],0.53
AAGGTTGTGGTCTCTCCCAT,remaining target (mRNA or protein) (fraction of control),[1],≥ 1
ACGGACCCGCTCCTTGCTCA,remaining target (mRNA or protein) (fraction of control),[4],0.48
AGTATCTGGCTTTCTTTA,remaining target (mRNA or protein) (fraction of control),[2],≥ 1
